Data published in patent US9266878B2, “Phosphatidylinositol 3-kinase inhibitors” (Gilead Calistoga LLC, priority 2012, dated 2016).

How the values were obtained:
Test in all cases: Enzymatic activity of PI3K isoforms, TR-FRET assay (PIP3 formation)
Type in all cases: biochemical
PI3Kγ = PI3Kγ (Homo sapiens (Human), UniProt P48736)
Description: (§1) Enzymatic activity of the class I PI3K isoforms was measured using a time-resolved fluorescence resonance energy transfer (TR-FRET) assay that monitors formation of the product 3,4,5-inositol triphosphate molecule (PIP3), as it competes with fluorescently labeled PIP3 for binding to the GRP-1 pleckstrin homology domain protein. An increase in […] product results in a decrease in TR-FRET signal as the labeled fluorophore is displaced from the GRP-1 protein binding site.
Class I PI3K isoforms were expressed and purified as heterodimeric recombinant proteins. All assay reagents and buffers for the TR-FRET assay were purchased from Millipore.
IC50 are reported in units of nM.

PI3Kα = PI3Kα (Homo sapiens (Human), UniProt P42336); conditions: bound given in uM
Description: as §1
(§2) Class I PI3K isoforms were expressed and purified as heterodimeric recombinant proteins. All assay reagents and buffers for the TR-FRET assay were purchased from Millipore. […] After an assay reaction time of 30 minutes at 25° C., reactions were terminated with a final concentration of 10 mM EDTA, 10 nM labeled-PIP3, and 35 nM Europium labeled GRP-1 detector protein before reading TR-FRET on an Envision plate reader (Ex: 340 nm; Em: 615/665 nm; 100 μs delay and 500 μs read window).
(§3) IC50 are reported in units of nM. These assays generally produced results within 3-fold of the reported mean.

PI3Kδ = PI3Kδ (Homo sapiens (Human), UniProt O00329); conditions: bound given in nM
Description: as §1, §2, §3

Sequence of PI3Kα (P42336 whole entry): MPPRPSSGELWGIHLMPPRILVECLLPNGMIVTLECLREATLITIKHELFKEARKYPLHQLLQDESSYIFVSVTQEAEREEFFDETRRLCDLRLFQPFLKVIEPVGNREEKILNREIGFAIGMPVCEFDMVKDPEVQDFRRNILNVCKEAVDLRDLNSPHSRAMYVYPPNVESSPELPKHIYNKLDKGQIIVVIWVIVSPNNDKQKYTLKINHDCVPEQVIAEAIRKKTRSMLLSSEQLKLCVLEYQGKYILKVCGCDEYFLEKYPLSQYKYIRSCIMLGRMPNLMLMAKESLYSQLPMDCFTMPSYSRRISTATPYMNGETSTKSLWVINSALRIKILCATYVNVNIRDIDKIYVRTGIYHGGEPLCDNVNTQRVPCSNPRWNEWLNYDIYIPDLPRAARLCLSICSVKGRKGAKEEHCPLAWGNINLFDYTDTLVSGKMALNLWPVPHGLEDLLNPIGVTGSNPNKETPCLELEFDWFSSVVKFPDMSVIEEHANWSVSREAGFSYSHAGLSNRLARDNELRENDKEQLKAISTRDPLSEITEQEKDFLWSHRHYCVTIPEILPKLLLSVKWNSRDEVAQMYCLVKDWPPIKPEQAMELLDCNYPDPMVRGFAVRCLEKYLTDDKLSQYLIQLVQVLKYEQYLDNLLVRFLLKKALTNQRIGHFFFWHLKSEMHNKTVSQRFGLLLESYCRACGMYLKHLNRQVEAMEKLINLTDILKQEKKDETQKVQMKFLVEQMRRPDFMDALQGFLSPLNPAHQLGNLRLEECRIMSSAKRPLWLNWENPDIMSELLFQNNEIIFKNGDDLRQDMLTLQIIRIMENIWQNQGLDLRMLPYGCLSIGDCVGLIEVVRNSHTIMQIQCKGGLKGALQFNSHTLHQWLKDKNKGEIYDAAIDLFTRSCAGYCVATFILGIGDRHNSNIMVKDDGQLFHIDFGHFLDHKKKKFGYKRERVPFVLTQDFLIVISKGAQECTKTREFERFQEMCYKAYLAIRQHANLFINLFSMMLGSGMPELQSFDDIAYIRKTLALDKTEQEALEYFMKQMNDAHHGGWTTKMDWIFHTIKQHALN
Sequence of PI3Kα (P27986 whole entry partner): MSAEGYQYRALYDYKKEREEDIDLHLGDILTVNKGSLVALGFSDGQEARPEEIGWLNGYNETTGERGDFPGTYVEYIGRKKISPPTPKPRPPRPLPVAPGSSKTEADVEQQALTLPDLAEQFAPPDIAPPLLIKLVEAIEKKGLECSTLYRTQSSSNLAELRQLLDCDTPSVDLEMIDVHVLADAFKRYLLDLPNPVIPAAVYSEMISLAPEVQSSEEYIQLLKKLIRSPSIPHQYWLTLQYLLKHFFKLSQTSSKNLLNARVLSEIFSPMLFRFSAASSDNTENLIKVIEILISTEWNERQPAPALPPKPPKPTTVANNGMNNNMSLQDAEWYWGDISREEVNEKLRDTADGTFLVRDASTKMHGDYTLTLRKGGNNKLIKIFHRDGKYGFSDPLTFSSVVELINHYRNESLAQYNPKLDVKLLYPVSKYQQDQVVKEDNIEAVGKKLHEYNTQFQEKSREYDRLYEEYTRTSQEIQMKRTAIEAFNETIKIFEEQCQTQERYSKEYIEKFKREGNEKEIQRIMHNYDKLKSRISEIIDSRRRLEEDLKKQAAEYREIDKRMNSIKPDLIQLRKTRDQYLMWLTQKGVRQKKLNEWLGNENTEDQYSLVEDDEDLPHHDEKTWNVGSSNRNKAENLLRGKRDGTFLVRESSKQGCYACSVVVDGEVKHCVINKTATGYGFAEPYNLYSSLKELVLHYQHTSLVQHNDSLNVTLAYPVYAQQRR
Sequence of PI3Kδ (O00329 whole entry): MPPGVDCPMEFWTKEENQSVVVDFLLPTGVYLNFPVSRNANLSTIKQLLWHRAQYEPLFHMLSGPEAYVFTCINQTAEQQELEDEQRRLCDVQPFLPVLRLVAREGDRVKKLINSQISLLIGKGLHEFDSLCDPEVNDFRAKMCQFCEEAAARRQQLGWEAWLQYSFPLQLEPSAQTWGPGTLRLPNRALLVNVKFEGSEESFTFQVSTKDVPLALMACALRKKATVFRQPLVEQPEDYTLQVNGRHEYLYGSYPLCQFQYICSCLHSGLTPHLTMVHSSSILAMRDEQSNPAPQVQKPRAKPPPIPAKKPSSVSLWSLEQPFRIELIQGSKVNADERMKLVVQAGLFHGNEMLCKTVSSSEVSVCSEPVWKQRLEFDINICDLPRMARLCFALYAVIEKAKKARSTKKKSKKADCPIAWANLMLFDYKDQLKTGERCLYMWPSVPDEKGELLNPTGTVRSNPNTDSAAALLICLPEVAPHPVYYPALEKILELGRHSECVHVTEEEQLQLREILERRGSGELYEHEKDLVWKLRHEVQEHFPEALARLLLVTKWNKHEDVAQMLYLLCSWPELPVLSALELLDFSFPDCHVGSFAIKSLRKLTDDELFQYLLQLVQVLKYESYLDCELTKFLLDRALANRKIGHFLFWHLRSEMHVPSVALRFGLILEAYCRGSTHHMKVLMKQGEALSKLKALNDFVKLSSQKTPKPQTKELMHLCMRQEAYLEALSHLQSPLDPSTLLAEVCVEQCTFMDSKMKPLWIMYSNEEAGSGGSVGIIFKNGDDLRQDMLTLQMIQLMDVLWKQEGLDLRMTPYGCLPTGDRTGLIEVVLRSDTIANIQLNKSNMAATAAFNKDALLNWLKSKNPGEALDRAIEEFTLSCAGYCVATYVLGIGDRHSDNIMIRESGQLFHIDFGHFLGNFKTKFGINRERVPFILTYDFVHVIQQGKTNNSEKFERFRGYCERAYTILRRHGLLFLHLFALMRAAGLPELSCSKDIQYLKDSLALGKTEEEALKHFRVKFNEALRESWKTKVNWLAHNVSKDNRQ
Sequence of PI3Kδ (P27986 whole entry partner): as the sequence (P27986 whole entry partner) above
Sequence of PI3Kγ (P48736 whole entry, the tested form may be a part, canonical isoform): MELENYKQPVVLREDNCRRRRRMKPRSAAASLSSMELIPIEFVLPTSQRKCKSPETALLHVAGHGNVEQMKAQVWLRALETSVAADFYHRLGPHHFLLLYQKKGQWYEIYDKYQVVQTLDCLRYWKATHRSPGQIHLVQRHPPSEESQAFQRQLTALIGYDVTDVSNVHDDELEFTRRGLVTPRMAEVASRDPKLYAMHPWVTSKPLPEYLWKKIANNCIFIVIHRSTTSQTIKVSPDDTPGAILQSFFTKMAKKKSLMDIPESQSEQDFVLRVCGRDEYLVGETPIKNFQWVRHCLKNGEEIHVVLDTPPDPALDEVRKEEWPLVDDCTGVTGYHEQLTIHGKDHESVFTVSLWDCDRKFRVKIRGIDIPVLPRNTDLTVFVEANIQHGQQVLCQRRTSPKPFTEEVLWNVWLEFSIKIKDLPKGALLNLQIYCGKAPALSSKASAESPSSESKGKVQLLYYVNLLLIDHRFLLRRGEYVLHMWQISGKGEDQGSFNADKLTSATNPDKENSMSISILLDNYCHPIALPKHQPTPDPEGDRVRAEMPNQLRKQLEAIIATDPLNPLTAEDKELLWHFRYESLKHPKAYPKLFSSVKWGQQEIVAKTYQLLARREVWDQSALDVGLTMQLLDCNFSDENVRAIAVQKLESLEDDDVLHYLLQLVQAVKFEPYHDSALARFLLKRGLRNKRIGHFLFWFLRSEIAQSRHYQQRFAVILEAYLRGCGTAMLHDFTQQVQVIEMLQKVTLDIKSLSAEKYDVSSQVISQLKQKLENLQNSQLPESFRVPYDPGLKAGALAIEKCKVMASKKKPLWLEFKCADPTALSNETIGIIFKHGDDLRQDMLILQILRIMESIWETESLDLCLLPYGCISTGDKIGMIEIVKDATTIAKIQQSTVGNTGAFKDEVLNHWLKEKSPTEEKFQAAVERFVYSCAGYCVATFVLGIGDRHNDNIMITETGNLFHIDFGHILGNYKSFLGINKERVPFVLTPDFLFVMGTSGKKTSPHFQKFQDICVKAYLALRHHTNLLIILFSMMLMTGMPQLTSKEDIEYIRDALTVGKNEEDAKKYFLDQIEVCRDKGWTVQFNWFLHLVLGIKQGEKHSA
Sequence of PI3Kγ (Q8WYR1 whole entry partner, the tested form may be a part, canonical isoform): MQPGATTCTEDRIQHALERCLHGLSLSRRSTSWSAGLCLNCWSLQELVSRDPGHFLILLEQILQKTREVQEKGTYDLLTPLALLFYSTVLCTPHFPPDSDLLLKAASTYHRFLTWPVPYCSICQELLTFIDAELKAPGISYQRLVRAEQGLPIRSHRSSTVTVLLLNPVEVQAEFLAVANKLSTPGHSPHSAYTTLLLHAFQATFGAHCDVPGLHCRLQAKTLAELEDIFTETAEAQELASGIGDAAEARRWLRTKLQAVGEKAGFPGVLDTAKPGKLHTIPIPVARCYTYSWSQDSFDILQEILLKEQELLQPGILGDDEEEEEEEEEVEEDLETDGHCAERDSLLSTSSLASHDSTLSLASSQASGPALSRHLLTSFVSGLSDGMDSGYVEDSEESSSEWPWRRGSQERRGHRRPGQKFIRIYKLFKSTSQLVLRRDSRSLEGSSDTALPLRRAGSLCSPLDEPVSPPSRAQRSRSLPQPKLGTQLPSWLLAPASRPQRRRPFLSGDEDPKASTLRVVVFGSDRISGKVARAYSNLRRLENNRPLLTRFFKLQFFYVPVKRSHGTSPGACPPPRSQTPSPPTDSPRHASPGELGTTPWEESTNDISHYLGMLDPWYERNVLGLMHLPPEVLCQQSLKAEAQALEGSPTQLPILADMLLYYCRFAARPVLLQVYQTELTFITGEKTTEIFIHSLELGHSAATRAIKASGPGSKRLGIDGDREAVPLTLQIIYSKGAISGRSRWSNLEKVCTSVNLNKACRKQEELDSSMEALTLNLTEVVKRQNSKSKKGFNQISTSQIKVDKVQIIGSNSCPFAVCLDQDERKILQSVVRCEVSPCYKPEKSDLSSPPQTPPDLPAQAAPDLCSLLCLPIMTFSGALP

Row | Structure (SMILES) | IC50 (PI3Kγ; bound given in uM) [µM] | IC50 (PI3Kα) [µM] | IC50 (PI3Kδ) [nM] | IC50 (PI3Kγ; bound given in nM) [µM]
1 | C[C@H](Nc1ncnc(N)c1C#Cc1cccc(CO)c1)c1nc2cccc(Cl)c2c(=O)n1-c1ccccc1 [Compound 162a, (S)-2-(1-((6-amino-5-((3-(hydroxymethyl)phenyl)ethynyl)pyrimidin-4-yl)amino)ethyl)-5-chloro-3-phenylquinazolin-4(3H)-one] | > 1 | > 1 | < 100 | –
2 | CCc1ccnc(C#Cc2c(N)ncnc2N[C@@H](C)c2nc3cccc(Cl)c3c(=O)n2-c2ccccc2)c1 [Compound 150a, (S)-2-(1-((6-amino-5-((4-ethylpyridin-2-yl)ethynyl)pyrimidin-4-yl)amino)ethyl)-5-chloro-3-phenylquinazolin-4(3H)-one] | – | > 1 | < 100 | < 0.1
3 | COC(=O)c1ccnc(C#Cc2c(N)ncnc2N[C@@H](C)c2nc3cccc(Cl)c3c(=O)n2-c2ccccc2)c1 [Compound 158a, (S)-methyl 2-((4-amino-6-((1-(5-chloro-4-oxo-3-phenyl-3,4-dihydroquinazolin-2-yl)ethyl)amino)pyrimidin-5-yl)ethynyl)isonicotinate] | > 1 | > 1 | < 100 | –
4 | C[C@H](Nc1ncnc(N)c1C#CC1CCCC1)c1nc2cccc(Cl)c2c(=O)n1-c1ccccc1 [Compound 144a, (S)-2-(1-((6-amino-5-(cyclopentylethynyl)pyrimidin-4-yl)amino)ethyl)-5-chloro-3-phenylquinazolin-4(3H)-one] | > 1 | > 1 | < 100 | –
5 | Cc1nc(C#Cc2c(N)ncnc2N[C@@H](C)c2nc3cccc(Cl)c3c(=O)n2-c2ccccc2)ccc1F [Compound 140a, (S)-2-(1-((6-amino-5-((5-fluoro-6-methylpyridin-2-yl)ethynyl)pyrimidin-4-yl)amino)ethyl)-5-chloro-3-phenylquinazolin-4(3H)-one] | > 1 | > 1 | < 100 | –
6 | C[C@H](Nc1nc(N)nc(N)c1C#Cc1ccccc1)c1nc2cccc(Cl)c2c(=O)n1-c1ccccc1 [Compound 25a, 5-chloro-2-(1-((2,6-diamino-5-(phenylethynyl)pyrimidin-4-yl)amino)ethyl)-3-phenylquinazolin-4(3H)-one] | – | – | < 100 | < 0.1
7 | C[C@H](Nc1ncnc(N)c1C#Cc1ccccc1)c1nc2cccc(F)c2c(=O)n1-c1cccnc1 [Compound 116a, (S)-2-(1-((6-amino-5-(phenylethynyl)pyrimidin-4-yl)amino)ethyl)-5-fluoro-3-(pyridin-3-yl)quinazolin-4(3H)-one] | > 1 | – | < 100 | –
8 | C[C@H](Nc1ncnc(N)c1C#Cc1cccc(C(F)(F)F)n1)c1nc2cccc(Cl)c2c(=O)n1-c1ccccc1 [Compound 151a, (S)-2-(1-((6-amino-5-((6-(trifluoromethyl)pyridin-2-yl)ethynyl)pyrimidin-4-yl)amino)ethyl)-5-chloro-3-phenylquinazolin-4(3H)-one] | – | > 1 | < 100 | –
9 | COc1cc(F)cc(C#Cc2c(N)ncnc2N[C@@H](C)c2nc3cccc(Cl)c3c(=O)n2-c2ccccc2)c1 [Compound 47a, (S)-2-(1-(6-amino-5-((3-fluoro-5-methoxyphenyl)ethynyl)pyrimidin-4-ylamino)ethyl)-5-chloro-3-phenylquinazolin-4(3H)-one] | – | > 1 | < 100 | –
10 | Nc1ncnc(N2CCC[C@H]2c2nc3cccc(Cl)c3c(=O)n2-c2ccccc2)c1C#Cc1ccccn1 [Compound 37a, (S)-2-(1-(6-amino-5-(pyridin-2-ylethynyl)pyrimidin-4-yl)pyrrolidin-2-yl)-5-chloro-3-phenylquinazolin-4(3H)-one] | – | > 1 | < 100 | –
11 | C[C@H](Nc1ncnc(N)c1C#Cc1cnc(N)cc1C(F)(F)F)c1nc2cccc(Cl)c2c(=O)n1-c1cc(F)cc(F)c1 [Compound 17a, (S)-2-(1-(6-amino-5-((6-amino-4-(trifluoromethyl)pyridin-3-yl)ethynyl)pyrimidin-4-ylamino)ethyl)-5-chloro-3-(3,5-difluorophenyl)quinazolin-4(3H)-one] | – | – | < 100 | < 0.1
12 | C[C@H](Nc1ncnc(N)c1C#Cc1cnccn1)c1nc2cccc(C(F)F)c2c(=O)n1-c1ccccc1 [Compound 76a, (S)-2-(1-((6-amino-5-(pyrazin-2-ylethynyl)pyrimidin-4-yl)amino)ethyl)-5-(difluoromethyl)-3-phenylquinazolin-4(3H)-one] | – | > 1 | < 100 | –
13 | C[C@H](Nc1ncnc(N)c1C#Cc1ccccc1)c1nc2cccc(F)c2c(=O)n1-c1cccc(F)c1 [Compound 111a, (S)-2-(1-((6-amino-5-(phenylethynyl)pyrimidin-4-yl)amino)ethyl)-5-fluoro-3-(3-fluorophenyl)quinazolin-4(3H)-one] | – | > 1 | < 100 | –
14 | Cc1ccc(F)c2nc([C@H](C)Nc3ncnc(N)c3C#Cc3ccc(F)cn3)n(-c3ccccc3)c(=O)c12 [Compound 62a, (S)-2-(1-((6-amino-5-((5-fluoropyridin-2-yl)ethynyl)pyrimidin-4-yl)amino)ethyl)-8-fluoro-5-methyl-3-phenylquinazolin-4(3H)-one] | – | > 1 | < 100 | –
15 | C[C@H](Nc1ncnc(N)c1C#Cc1ccccc1)c1nc2cccc(C#N)c2c(=O)n1-c1ccccc1 [Compound 114a, (S)-2-(1-((6-amino-5-(phenylethynyl)pyrimidin-4-yl)amino)ethyl)-4-oxo-3-phenyl-3,4-dihydroquinazoline-5-carbonitrile] | – | > 1 | < 100 | –
16 | Cc1cccc2nc([C@H](C)Nc3ncnc(N)c3C#Cc3ncccn3)n(-c3ccccc3)c(=O)c12 [Compound 104a, (S)-2-(1-((6-amino-5-(pyrimidin-2-ylethynyl)pyrimidin-4-yl)amino)ethyl)-5-methyl-3-phenylquinazolin-4(3H)-one] | – | > 1 | < 100 | –
17 | C[C@H](Nc1ncnc(N)c1C#Cc1cccnc1)c1nc2cccc(Cl)c2c(=O)n1-c1ccccc1 [Compound 44a, (S)-2-(1-(6-amino-5-(pyridin-3-ylethynyl)pyrimidin-4-ylamino)ethyl)-5-chloro-3-phenylquinazolin-4(3H)-one] | – | – | < 100 | < 0.1
18 | C[C@H](Nc1ncnc(N)c1C#Cc1cnccn1)c1nc2cccc(Cl)c2c(=O)n1-c1cccc(Cl)c1 [Compound 89a, (S)-2-(1-((6-amino-5-(pyrazin-2-ylethynyl)pyrimidin-4-yl)amino)ethyl)-5-chloro-3-(3-chlorophenyl)quinazolin-4(3H)-one] | – | > 1 | < 100 | –
19 | C[C@H](Nc1ncnc(N)c1C#Cc1ccc(F)cn1)c1nc2c(F)ccc(Cl)c2c(=O)n1-c1ccccc1 [Compound 6a, (S)-2-(1-(6-amino-5-((5-fluoropyridin-2-yl)ethynyl)pyrimidin-4-ylamino)ethyl)-5-chloro-8-fluoro-3-phenylquinazolin-4(3H)-one] | – | > 1 | < 100 | –
20 | CC(=O)c1cccc(C#Cc2c(N)ncnc2N[C@@H](C)c2nc3cccc(Cl)c3c(=O)n2-c2ccccc2)n1 [Compound 153a, (S)-2-(1-((5-((6-acetylpyridin-2-yl)ethynyl)-6-aminopyrimidin-4-yl)amino)ethyl)-5-chloro-3-phenylquinazolin-4(3H)-one] | – | > 1 | < 100 | –
